US20240408169A1 (priority 2023, published 2024)
pIC50: −log10 of the molar value. Like-named read-outs stand apart in the source and are kept apart here. *1 amine or outer side, *2 acyl side, *3 side chain or, on linkers, in order; H or OH if unused. Where a SMILES comes first, the peptide text is derived from it. Bridges are numbered along the chain shown (N, C = ends). [ ]: non-standard residue; d: D form. The star is where a group is joined. X172 = CC(=O)N1CC=C(c2ccc(F)cc2C[C@@H](C(=O)[*:2])N(C)[*:1])CC1; NMe3Pal(2-OiBu,5-Cl) = CN[C@@H](Cc1cc(Cl)cnc1OCC(C)C)C(=O)O; NMehhhLys(Me) = CN([C@@H](CCCCCCCN(C)[*:3])C(=O)[*:2])[*:1]; X180 = CN([C@@H](Cc1cc(F)ccc1-c1cnn2c1CCC2)C(=O)[*:2])[*:1]; X135 = CN([C@@H](Cc1cc(Cl)ccc1-c1cn(C)cn1)C(=O)[*:2])[*:1]; X174 = CN([C@@H](Cc1cc(Cl)cnc1-c1cnn(C)c1)C(=O)[*:2])[*:1]; X112 = CN([C@@H](Cc1cc(F)ccc1-c1cnn(C)c1)C(=O)[*:2])[*:1]; X131 = CN([C@@H](Cc1cc(F)cnc1-c1cnn(C)c1)C(=O)[*:2])[*:1]; NMe(hhhLys) = CN([C@@H](CCCCCCCN[*:3])C(=O)[*:2])[*:1]; Oxane2carbonyl(2R-CF3) = O=C([C@@]1(C(F)(F)F)CCCCO1)*; Cyclobutanecarbonyl(1-CF3) = O=C(C1(C(F)(F)F)CCC1)*; cBuCO(3,3-F2-1-CF3) = O=C(C1(C(F)(F)F)CC(F)(F)C1)*; Pro(trans-4-F) = O=C(O)[C@@H]1C[C@@H](F)CN1; Gly(cPr) = N[C@H](C(=O)O)C1CC1

Experiments:
CyclinA2/CDK2 = molecular target: T1, CyclinA2/CDK2 (Homo sapiens, UniProt P20248); assay: Fluorescence Polarization (FP) competitive binding assay, Cyclin A2/Cdk2;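 further: plates equilibrated two hours at room temperature before polarization reading, IC50 fitted from eight-concentration compound titration curves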
T1 construct: purchased CRELUX Protein Services

CyclinB1/CDK1 = molecular target: T2, CyclinB1/CDK1 (Homo sapiens, UniProt P14635); assay: Fluorescence Polarization (FP) competitive binding assay, Cyclin B1/Cdk1;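 further: fluorescence polarization read after equilibration at room temperature, with IC50 taken from serially diluted dose-response curves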
T2 construct: purchased Eurofins, discovery 14-450

CyclinE1/CDK2 = molecular target: T3, CyclinE1/CDK2 (Homo sapiens, UniProt P24864); assay: Fluorescence Polarization (FP) competitive binding assay, Cyclin E1/Cdk2;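 further: readings taken after two-hour equilibration at room temperature in HEPES buffer with NaCl, DTT, NP-40 and BSA, IC50 fitted from eight-concentration serial dilution series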
T3 construct: purchased Eurofins, discovery 14-475

NCI-H1048 cells = assay: MTT proliferation assay, NCI-H1048; assay type: cell-based; conditions: 5 days compound exposure, 1:3 serial dilution starting at 10 μM;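 further: Dose-response in 96-well plates over 8 or 10 concentration points, with exposure spanning 3-4 cell doublings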
OVCAR3 cells = assay: MTT proliferation assay, OVCAR3; assay type: cell-based; conditions: 5 days compound exposure, 1:3 serial dilution starting at 10 μM;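 further: compound given as an 8- or 10-point series, one day after plating, with exposure covering roughly 3-4 cell doublings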
[1] = read-out: Cyclin B FP IC50; 10 nM Cyclin B1/Cdk1, 2 nM FAM probe; average of 2-3 independent experiments
[2] = read-out: Cyclin A FP IC50, 8 nM Cyclin A2/Cdk2, 2 nM FAM probe, average of 2-3 independent experiments
[3] = 8 nM Cyclin A2/Cdk2, 2 nM FAM probe, average of 2-3 independent experiments, read-out: Cyclin A FP IC50
[4] = 10 nM Cyclin B1/Cdk1, 2 nM FAM probe; average of 2-3 independent experiments; read-out: Cyclin B FP IC50
[5] = 10 nM Cyclin E1/Cdk2, 2 nM FAM probe, average of 2-3 independent experiments, read-out: Cyclin E FP IC50

SMILES | pIC50 (CyclinA2/CDK2) | pIC50 (CyclinB1/CDK1; [1]) | pIC50 (CyclinE1/CDK2) | GI50 (NCI-H1048 cells) [nM] | GI50 (OVCAR3 cells) [nM] | pIC50 (CyclinA2/CDK2; [2]) | pIC50 (CyclinA2/CDK2; [3]) | pIC50 (CyclinB1/CDK1; [4]) | pIC50 (CyclinE1/CDK2; [5])
CC(C)C[C@@H]1NC(=O)[C@@H](N(C)C(=O)[C@@H](NC(=O)[C@@H]2C[C@@H](F)CN2C(=O)C2(C(F)(F)F)CC(F)(F)C2)C2CC2)CCCCCCCNC(=O)[C@H](Cc2cc(F)ccc2-c2cnn3c2CCC3)N(C)C1=O [Example 214] ({cBuCO(3,3-F2-1-CF3)}-[Pro(trans-4-F)][Gly(cPr)][NMe(hhhLys)]L[X180]; lactam 3-C) | 7.30 | 7.70 | 6.30 | 10 | 10 |  |  |  | 
CC(C)C[C@@H]1NC(=O)[C@@H](N(C)C(=O)[C@@H](NC(=O)[C@@H]2C[C@@H](F)CN2C(=O)C2(C(F)(F)F)CC(F)(F)C2)C2CC2)CCCCCCCNC(=O)[C@H](Cc2cc(F)ccc2-c2cnn(C)c2)N(C)C1=O [Example 215] ({cBuCO(3,3-F2-1-CF3)}-[Pro(trans-4-F)][Gly(cPr)][NMe(hhhLys)]L[X112]; lactam 3-C) |  | 7.70 | 6.70 | 10 | 10 | 7.70 |  |  | 
CC(=O)N1CC=C(c2ccc(F)cc2C[C@H]2C(=O)NCCCCCCC[C@H](N(C)C(=O)[C@@H](NC(=O)[C@@H]3C[C@@H](F)CN3C(=O)C3(C(F)(F)F)CC(F)(F)C3)C3CC3)C(=O)N[C@@H](CC(C)C)C(=O)N2C)CC1 [Example 217] ({cBuCO(3,3-F2-1-CF3)}-[Pro(trans-4-F)][Gly(cPr)][NMe(hhhLys)]L[X172]; lactam 3-C) |  |  |  | 10 | 20 |  | 7.52 | 7.70 | 6.12
CC(C)COc1ncc(Cl)cc1C[C@H]1C(=O)N(C)CCCCCCC[C@H](N(C)C(=O)[C@@H](NC(=O)[C@@H]2C[C@@H](F)CN2C(=O)[C@@]2(C(F)(F)F)CCCCO2)C2CC2)C(=O)N[C@@H](CC(C)C)C(=O)N1C [Example 229] ({Oxane2carbonyl(2R-CF3)}-[Pro(trans-4-F)][Gly(cPr)][NMehhhLys(Me)]L[NMe3Pal(2-OiBu,5-Cl)]; lactam 3-C) |  | 7.70 | 7.00 | 10 | 20 | 7.70 |  |  | 
CC(C)C[C@@H]1NC(=O)[C@@H](N(C)C(=O)[C@@H](NC(=O)[C@@H]2C[C@@H](F)CN2C(=O)C2(C(F)(F)F)CC(F)(F)C2)C2CC2)CCCCCCCN(C)C(=O)[C@H](Cc2cc(Cl)ccc2-c2cn(C)cn2)N(C)C1=O [Example 242] ({cBuCO(3,3-F2-1-CF3)}-[Pro(trans-4-F)][Gly(cPr)][NMehhhLys(Me)]L[X135]; lactam 3-C) | 7.52 | 7.70 | 6.15 | 30 | 20 |  |  |  | 
CC(C)C[C@@H]1NC(=O)[C@@H](N(C)C(=O)[C@@H](NC(=O)[C@@H]2C[C@@H](F)CN2C(=O)C2(C(F)(F)F)CC(F)(F)C2)C2CC2)CCCCCCCN(C)C(=O)[C@H](Cc2cc(F)cnc2-c2cnn(C)c2)N(C)C1=O [Example 244] ({cBuCO(3,3-F2-1-CF3)}-[Pro(trans-4-F)][Gly(cPr)][NMehhhLys(Me)]L[X131]; lactam 3-C) |  |  |  | 100 | 40 |  | 7.22 | 7.70 | 6.24
CC(C)C[C@@H]1NC(=O)[C@@H](N(C)C(=O)[C@@H](NC(=O)[C@@H]2C[C@@H](F)CN2C(=O)C2(C(F)(F)F)CCC2)C2CC2)CCCCCCCN(C)C(=O)[C@H](Cc2cc(F)cnc2-c2cnn(C)c2)N(C)C1=O [Example 245] ({Cyclobutanecarbonyl(1-CF3)}-[Pro(trans-4-F)][Gly(cPr)][NMehhhLys(Me)]L[X131]; lactam 3-C) | 7.40 | 7.70 | 6.66 | 80 | 20 |  |  |  | 
CC(C)C[C@@H]1NC(=O)[C@@H](N(C)C(=O)[C@@H](NC(=O)[C@@H]2C[C@@H](F)CN2C(=O)C2(C(F)(F)F)CC(F)(F)C2)C2CC2)CCCCCCCN(C)C(=O)[C@H](Cc2cc(Cl)cnc2-c2cnn(C)c2)N(C)C1=O [Example 246] ({cBuCO(3,3-F2-1-CF3)}-[Pro(trans-4-F)][Gly(cPr)][NMehhhLys(Me)]L[X174]; lactam 3-C) |  | 7.70 | 6.19 | 30 | 10 | 7.70 |  |  | 
CC(C)C[C@@H]1NC(=O)[C@@H](N(C)C(=O)[C@@H](NC(=O)[C@@H]2C[C@@H](F)CN2C(=O)C2(C(F)(F)F)CCC2)C2CC2)CCCCCCCN(C)C(=O)[C@H](Cc2cc(Cl)cnc2-c2cnn(C)c2)N(C)C1=O [Example 247] ({Cyclobutanecarbonyl(1-CF3)}-[Pro(trans-4-F)][Gly(cPr)][NMehhhLys(Me)]L[X174]; lactam 3-C) |  |  |  | 50 | 40 |  | 7.70 | 7.70 | 6.51
